Data: patent publication US20240368096A1 (Enanta Pharmaceuticals, Inc., priority 2022, published 2024)

system: HBV; test: HBV infection in HepG2-NTCP cells (HBeAg AlphaLISA in supernatants); assay type: cell-based; settings: Hepatitis B virus, 192 h, read-out: Cellular EC50 (μM)
How it was run: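 Readout was day-8 supernatant HBeAg by AlphaLISA, with EC50 set against DMSO controls and binned A<0.1 μM, B 0.1-1 μM, C>1 μM. Compounds were added 2 h before HBV (2000 GE/cell, 4% PEG, 0.5% DMSO) to HepG2-NTCP A3 cells; from day 1 medium held 2.5% DMSO.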

Row | Compound | EC50 [µM]
1 | CCOP(=O)(OCC)c1cccc(-c2cc3c(cc2Cl)N(c2ccccc2)C[C@@H](CC(C)C)N(C)S3(=O)=O)c1 [Example 169] | > 1

same assay, conditions: Hepatitis B virus, 192 h; HBV infection of HepG2-NTCP cells; HBeAg in supernatants at day 8 post infection; read-out: Cellular EC50

Row | EC50 [µM] | Compound
2 | > 1 | CCCCC[C@@H]1CN(c2ccccc2)c2cc(Cl)c(-c3ccc(F)c(C(=O)O)c3)cc2S(=O)(=O)N1C [Example 70]
3 | > 1 | CC(C)C[C@@H]1CN(c2ccccc2)c2cc(OCC34CCCN3CCC4)c(-c3ccc(F)c(C(=O)O)c3)cc2S(=O)(=O)N1C [Example 450]
4 | > 1 | Cc1c(C(=O)O)cccc1-c1cc2c(cc1Cl)N(c1ccccc1)C[C@@H](C1CCCCC1)N(C)S2(=O)=O [Example 144, (R)-3-(7-chloro-3-cyclohexyl-2-methyl-1,1-dioxido-5-phenyl-2,3,4,5-tetrahydrobenzo[f][1,2,5]thiadiazepin-8-yl)-2-methylbenzoic acid]
5 | < 0.1 | CC(C)Oc1cc2c(cc1-c1ccc(F)c(C(=O)O)c1)S(=O)(=O)N(C)[C@H](C1CCCCC1)CN2c1ccccc1 [Example 357]
6 | < 0.1 | CN1[C@H](C(C)(C)C)CN(c2ccccc2)c2cc(Cl)c(-c3ccc(F)c(C(=O)O)c3)cc2S1(=O)=O [Example 85, (R)-5-(3-(tert-butyl)-7-chloro-2-methyl-1,1-dioxido-5-phenyl-2,3,4,5-tetrahydrobenzo[f][1,2,5]thiadiazepin-8-yl)-2-fluorobenzoic acid]
7 | 0.1 to 1 | CN1[C@H](C2CC(F)(F)C2)CN(c2ccccc2)c2cc(Cl)c(-c3ccc(Cl)c(C(=O)O)c3)cc2S1(=O)=O [Example 32]
8 | 0.1 to 1 | CC(C)C[C@@H]1CN(c2ccccc2)c2cc(N(C)c3ccccc3F)c(-c3ccc(Cl)c(C(=O)O)c3)cc2S(=O)(=O)N1C [Example 556]
9 | < 0.1 | CC(C)[C@@H]1CN(c2ccccc2)c2cc(Cl)c(-c3cc(F)c(F)c(C(=O)O)c3)cc2S(=O)(=O)N1C [Example 63]
10 | 0.1 to 1 | CCO[C@H](C)[C@@H]1CN(c2ccccc2)c2cc(Cl)c(-c3ccc(F)c(C(=O)O)c3)cc2S(=O)(=O)N1C [Example 92]
11 | < 0.1 | CC(C)C[C@@H]1CN(c2ccccc2)c2cc(Cl)c(-c3ccc([N+](=O)[O-])c(C(=O)O)c3)cc2S(=O)(=O)N1C [Example 183]
12 | < 0.1 | CC(C)C[C@@H]1CN(c2ccccc2)c2cc(OCc3cncs3)c(-c3ccc(F)c(C(=O)O)c3)cc2S(=O)(=O)N1C [Example 458]
13 | 0.1 to 1 | CN1[C@H](C2CC=CCO2)CN(c2ccccc2)c2cc(Cl)c(-c3ccc(F)c(C(=O)O)c3)cc2S1(=O)=O (single isomer, unassigned) [Example 103]
14 | < 0.1 | CC(C)[C@@H]1CN(c2ccccc2)c2cc(Cl)c(-c3ccc(Cl)c(C(=O)O)c3)cc2S(=O)(=O)N1C [Example 62]
15 | < 0.1 | CN1[C@H](C2CC2)CN(c2ccccc2)c2cc(Cl)c(-c3ccc(Cl)c(C(=O)O)c3)cc2S1(=O)=O [Example 65]
16 | 0.1 to 1 | CC(C)C[C@@H]1CN(c2ccccc2)c2cc(Cl)c(-c3ccc(-c4ccoc4)c(C(=O)O)c3)cc2S(=O)(=O)N1C [Example 216]
17 | < 0.1 | CN1[C@H](CC2CC2)CN(c2ccccc2)c2cc(Cl)c(-c3ccc(F)c(C(=O)O)c3)cc2S1(=O)=O [Example 73]
18 | 0.1 to 1 | CCCCC1CN(c2ccccc2)c2cc(Cl)c(-c3ccc(F)c(C(=O)O)c3)cc2S(=O)(=O)N1C (stereo not shown) [Example 71]
19 | 0.1 to 1 | CC(C)C[C@@H]1CN(c2ccccc2)c2cc(Nc3ccc(F)cc3)c(-c3ccc(Cl)c(C(=O)O)c3)cc2S(=O)(=O)N1C [Example 548]
20 | 0.1 to 1 | CC(C)C[C@@H]1CN(c2ccccc2)c2cc(OC3CC4(COC4)C3)c(-c3ccc(F)c(C(=O)O)c3)cc2S(=O)(=O)N1C [Example 444]
21 | 0.1 to 1 | CSc1cc2c(cc1-c1ccc(F)c(C(=O)O)c1)S(=O)(=O)N1CC(C)(C)CC1CN2c1ccccc1 (stereo not shown) [Example 20]
22 | > 1 | C=CC[C@H]1CN(c2ccccc2)c2cc(Cl)c(-c3cccc(C(=O)O)c3)cc2S(=O)(=O)N1C [Example 40]
23 | > 1 | CC(C)C[C@@H]1CN(c2ccccc2)c2cc(Cl)c(-c3cccc(CCC(=O)O)c3)cc2S(=O)(=O)N1C [Example 172]
24 | < 0.1 | CN1[C@H](C2CCC2)CN(c2ccccc2)c2cc(Cl)c(-c3ccc(F)c(C(=O)O)c3)cc2S1(=O)=O [Example 80, (R)-5-(7-chloro-3-cyclobutyl-2-methyl-1,1-dioxido-5-phenyl-2,3,4,5-tetrahydrobenzo[f][1,2,5]thiadiazepin-8-yl)-2-fluorobenzoic acid]
25 | < 0.1 | CC(C)CCCOc1cc2c(cc1-c1ccc(F)c(C(=O)O)c1)S(=O)(=O)N(C)[C@H](C1CCCCC1)CN2c1ccccc1 [Example 360]

Second part, the compound before the results:

Row | Compound | EC50 [µM]
26 | Cc1cc(-c2cc3c(cc2Cl)N(c2ccccc2)C[C@@H](C2CCCCC2)N(C)S3(=O)=O)oc1C(=O)O [Example 124] | < 0.1
27 | CCCC[C@@H]1CN(c2ccccc2)c2cc(Oc3ccccc3C(F)(F)F)c(-c3ccc(F)c(C(=O)O)c3)cc2S(=O)(=O)N1C [Example 419] | < 0.1
28 | CN1[C@H](C2CCCCC2)CN(c2ccccc2)c2cc(Cl)c(-c3cc(NC(=O)OCC4(C)CC4)c(C(=O)O)s3)cc2S1(=O)=O [Example 254] | < 0.1
29 | CCCC[C@@H]1CN(c2ccccc2)c2cc(N3CCCC3)c(-c3cc(C(=O)O)n(C)n3)cc2S(=O)(=O)N1C [Example 521] | 0.1 to 1
30 | CN1[C@H](C2CCCCC2)CN(c2ccccc2)c2cc(Oc3cccnc3)c(-c3ccc(F)c(C(=O)O)c3)cc2S1(=O)=O [Example 415] | 0.1 to 1
31 | CN1[C@H](C2CCCCC2)CN(c2ccccc2)c2cc(OC3CC4(CC4)C3)c(-c3ccc(F)c(C(=O)O)c3)cc2S1(=O)=O [Example 385] | < 0.1
32 | CCCC[C@@H]1CN(c2ccccc2)c2cc(-n3cnc4ccccc43)c(-c3ccc(F)c(C(=O)O)c3)cc2S(=O)(=O)N1C [Example 527] | 0.1 to 1
33 | CN1[C@H](C2CCCCC2)CN(c2ccccc2)c2cc(O[C@@H]3CCCNC3)c(-c3ccc(F)c(C(=O)O)c3)cc2S1(=O)=O [Example 399] | > 1
34 | CN1[C@H](C2CCCCC2)CN(c2ccccc2)c2cc(OCCOC(C)(C)C)c(-c3cc(F)c(C(=O)O)s3)cc2S1(=O)=O [Example 495] | < 0.1
35 | CCCCOc1ccc(N2C[C@@H](C3CCCCC3)N(C)S(=O)(=O)c3cc(-c4ccc(F)c(C(=O)O)c4)c(Cl)cc32)cc1 [Example 311] | 0.1 to 1
36 | CN1[C@H](C2CCCCC2)CN(c2ccc3c(c2)OC(F)(F)O3)c2cc(Cl)c(-c3ccc(F)c(C(=O)O)c3)cc2S1(=O)=O [Example 314] | < 0.1
37 | CN1[C@H](C2CCCCC2)CN(c2ccccc2)c2cc(C3CCN(C(=O)c4cnn(C)c4)CC3)c(-c3ccc(F)c(C(=O)O)c3)cc2S1(=O)=O [Example 598] | > 1
38 | CCOc1cc2c(cc1-c1ccc(F)c(C(=O)O)c1)S(=O)(=O)N(C)[C@H](C1CCCCC1)CN2c1ccccc1 [Example 349] | < 0.1
39 | CN1[C@H](C2CCCCC2)CN(c2ccccc2)c2cc(OCC34CC(CO3)C4)c(-c3ccc(F)c(C(=O)O)c3)cc2S1(=O)=O [Example 371] | < 0.1
40 | COc1cc(F)ccc1Oc1cc2c(cc1-c1ccc(F)c(C(=O)O)c1)S(=O)(=O)N(C)[C@H](C1CCCCC1)CN2c1ccccc1 [Example 406] | < 0.1
41 | CN1[C@H](C2CCCCC2)CN(c2cccc(F)c2)c2cc(Cl)c(-c3ccc(F)c(C(=O)O)c3)cc2S1(=O)=O [Example 295] | 0.1 to 1
42 | CN1[C@H](C2CCCCC2)CN(c2ccccc2)c2cc(Cl)c(-c3cc(C(=O)O)nn3C)cc2S1(=O)=O [Example 133, (R)-5-(7-chloro-3-cyclohexyl-2-methyl-1,1-dioxido-5-phenyl-2,3,4,5-tetrahydrobenzo[f][1,2,5]thiadiazepin-8-yl)-1-methyl-1H-pyrazole-3-carboxylic acid] | 0.1 to 1
43 | CN1[C@H](C2CCCCC2)CN(c2ccccc2)c2cc(Cl)c(-c3cc(C(=O)O)ccc3Cl)cc2S1(=O)=O [Example 151, (R)-4-chloro-3-(7-chloro-3-cyclohexyl-2-methyl-1,1-dioxido-5-phenyl-2,3,4,5-tetrahydrobenzo[f][1,2,5]thiadiazepin-8-yl)benzoic acid] | 0.1 to 1
44 | CO[C@H]1C[C@H](N2C[C@@H](CC(C)C)N(C)S(=O)(=O)c3cc(-c4ccc(F)c(C(=O)O)c4)c(Oc4ccccc4F)cc32)C1 [Example 472] | 0.1 to 1
45 | CN1[C@H](C2CCCCC2)CN(c2ccccc2)c2cc(N3CCCCC3)c(-c3ccc(Cl)c(C(=O)O)c3)cc2S1(=O)=O [Example 558, (R)-2-chloro-5-(3-cyclohexyl-2-methyl-1,1-dioxido-5-phenyl-7-(piperidin-1-yl)-2,3,4,5-tetrahydrobenzo[f][1,2,5]thiadiazepin-8-yl)benzoic acid] | < 0.1
46 | CN1[C@H](C2CCCCC2)CN(c2ccccc2)c2cc(-n3ccccc3=O)c(-c3ccc(F)c(C(=O)O)c3)cc2S1(=O)=O [Example 530] | > 1
47 | Cc1sc(-c2cc3c(cc2Cl)N(c2ccccc2)C[C@@H](C2CCCCC2)N(C)S3(=O)=O)cc1C(=O)O [Example 122] | < 0.1
48 | CN1[C@H](C2CCCCC2)CN(c2ccccc2)c2cc(Cl)c(-c3cc(NC(=O)OC4CCCC4)c(C(=O)O)s3)cc2S1(=O)=O [Example 251] | < 0.1
49 | CN1[C@H](C2CCCCC2)CN(c2ccccc2)c2cc(OC3CCC3)c(-c3ccc(NC(=O)OC4CCC4)c(C(=O)O)c3)cc2S1(=O)=O [Example 482] | < 0.1
50 | Cc1cc(-c2cc3c(cc2OC2CCC2)N(c2ccccc2)C[C@@H](C2CCCCC2)N(C)S3(=O)=O)sc1C(=O)O [Example 513, (R)-5-(7-cyclobutoxy-3-cyclohexyl-2-methyl-1,1-dioxido-5-phenyl-2,3,4,5-tetrahydrobenzo[f][1,2,5]thiadiazepin-8-yl)-3-methylthiophene-2-carboxylic acid] | < 0.1
51 | CSc1cc2c(cc1-c1cccc(C(=O)O)c1)S(=O)(=O)N1Cc3ccccc3C1CN2c1ccccc1 (stereo not shown) [Example 22] | > 1
52 | CN1[C@H](C2CCCCC2)CN(c2ccccc2)c2cc(Oc3ccc(F)c(F)c3)c(-c3ccc(F)c(C(=O)O)c3)cc2S1(=O)=O [Example 404] | < 0.1
